The record followed here is patent publication US12544395B2, “Combination compositions comprising a beta-lactamase inhibitor and uses thereof” (priority 2018, dated 2026).

SMILES strings stand for the structures. In brackets after ≈: the same amount, converted by molar mass.

The subject of data set [1] is panel of ESBL-producing Enterobacteriaceae (40 strains). In words: Broth microdilution MIC50/MIC90 summary over the panel. It counts as cell-based. A general note: Dilution methods test growth across graded concentrations, often in twofold steps.
Another data set relates to E. coli 1924. The experiment in a line: Broth microdilution MIC (strain enzymes: TEM-12). It counts as cell-based. The note with it: alone.
Another data set has as its system E. coli 2806. The experiment in a line: Broth microdilution MIC (strain enzymes: SHV-12, TEM-1). It counts as cell-based. The note with it: alone.
Another data set has as its system E. coli 3174. In words: Broth microdilution MIC (strain enzymes: TEM-1, CTXM-15). The note with it: alone. It counts as cell-based.
The subject of the next data set is E. coli 3327. In words: Broth microdilution MIC (strain enzymes: TEM-1, SHV-12). It counts as cell-based. The note with it: alone.
The subject of a further data set is E. coli SI-AIRT-4. The experiment in a line: Broth microdilution MIC (strain enzymes: TEM-1). It counts as cell-based. The note with it: alone.
A further data set relates to E. coli SI-NO36. The experiment in a line: Broth microdilution MIC (strain enzymes: SHV-11, TEM-1). The note with it: alone. It counts as cell-based.
In a further data set the test system is E. coli SI-PBLII. The experiment in a line: Broth microdilution MIC (strain enzymes: CTX-M2, TEM-1). The note with it: alone. It counts as cell-based.
The subject of a further data set is E. coli SI-V502. The experiment in a line: Broth microdilution MIC (strain enzymes: TEM-29, CTX-M15). It counts as cell-based. The note with it: alone.
For the next data set, the system named is E. coli 25922. The experiment in a line: Broth microdilution MIC (strain enzymes: None detected). It counts as cell-based. The note with it: alone.
The test system of the next data set is K. oxytoca 176877. In words: Broth microdilution MIC (strain enzymes: SHV-105). It counts as cell-based. The note with it: alone.
Another data set has as its system K. oxytoca 496 #2. The experiment in a line: Broth microdilution MIC (strain enzymes: SHV-105, TEM-1). It counts as cell-based. The note with it: alone.
The next data set has as its system K. pneumoniae 115468. The experiment in a line: Broth microdilution MIC (strain enzymes: TEM-1). The note with it: alone. It counts as cell-based.
The subject of the next data set is K. pneumoniae 153239. The experiment in a line: Broth microdilution MIC (strain enzymes: SHV-11, TEM-1). It counts as cell-based. The note with it: alone.
For a further data set, the system named is K. pneumoniae 304487. The experiment in a line: Broth microdilution MIC (strain enzymes: SHV-12,TEM-1). It counts as cell-based. The note with it: alone.
For a further data set, the system named is K. pneumoniae 329633. The experiment in a line: Broth microdilution MIC (strain enzymes: SHV-5, TEM-1). The note with it: alone. It counts as cell-based.
In a further data set the test system is K. pneumoniae 11/23 LF#2. In words: microbe, parasite or virus in culture. It counts as cell-based. The note with it: alone.
The next data set has as its system K. pneumoniae ESBL 10. The experiment in a line: Broth microdilution MIC (strain enzymes: SHV-12, TEM-1). It counts as cell-based. The note with it: alone.
A further data set deals with K. pneumoniae ESBL 8 #1. In words: Broth microdilution MIC (strain enzymes: TEM-1, SHV-12). It counts as cell-based. The note with it: alone.
The test system of a further data set is K. pneumoniae ESBL 8 #2. The experiment in a line: Broth microdilution MIC (strain enzymes: SHV-12, TEM-1). It counts as cell-based. The note with it: alone.
Another data set has as its system K. pneumoniae KI (KCl). The experiment in a line: Broth microdilution MIC (strain enzymes: TEM-10). It counts as cell-based. The note with it: alone.
A short description of data set [2]: Excipient screening: solubility in SEDDS excipients. It counts as physicochemical. The note with it: thermodynamic from solid. The procedure: The solubility of Compound 1-ethanolate was evaluated in a series of pharmaceutically acceptable excipients that are commonly used to prepare self-emulsifying drug delivery systems (SEDDS) for oral drug delivery. This class of formulation results in a solid solution of drug substance and excipients that enable the delivery of the drug substance and prevents precipitation upon contact with aqueous environments (i.e. the stomach). The indicated quantity of Compound 1-ethanolate was weighed into a 3 mL screw top glass vial outfitted with a magnetic stir bar. The vial was transferred to a controlled temperature heating block and 100 μL aliquots of each excipient was added with stirring. After each addition, the sample was evaluated for dissolution of the drug substance and additional aliquots of excipient were added until a clear, colorless solution was obtained. Table 22 summarizes the solubility screening for 25 excipients.

As for `COCC1=C(C(=O)O)N2C(=O)[C@@H](NC(=O)/C(=N\OC)c3csc(N)n3)[C@H]2SC1` [Cefpodoxime, cefpodoxime, reference compound], the MIC50 (as a rule, an inhibitory concentration at the 50% level, which refers to growth in some studies and to a panel of isolates in others) in data set [1] (read-out: Cefpodoxime MIC50) is > 32 µg/mL. Further, the MIC90 (commonly the lowest concentration that inhibits either 90% of growth or 90% of the strains tested, depending on the study) in [1] (read-out: Cefpodoxime MIC90) is > 32 µg/mL.

For the compound `CC1=C(C(=O)O)N2C(=O)[C@@H](NC(=O)[C@H](N)c3ccccc3)[C@H]2SC1` [Cephalexin, cefalexin, reference compound], the “MIC of cefalexin (LEX)” value is 2 µg/mL in the data set on E. coli 1924; 4 µg/mL in the data set with E. coli 2806; 1 µg/mL with E. coli 3174; 16 µg/mL with E. coli 3327; 0.25 µg/mL in the data set on E. coli SI-AIRT-4; 4 µg/mL in the data set with E. coli SI-NO36. For the same compound, the “MIC of cefalexin (LEX)” value was determined as 2 µg/mL in the data set with E. coli SI-PBLII; 2 µg/mL with E. coli SI-V502; 0.5 µg/mL with E. coli 25922; 8 µg/mL in the data set on K. oxytoca 176877; 16 µg/mL in the data set with K. oxytoca 496 #2; 8 µg/mL in the data set with K. pneumoniae 115468. Besides, the “MIC of cefalexin (LEX)” value with K. pneumoniae 153239 was determined as 2 µg/mL; in the data set with K. pneumoniae 304487, 8 µg/mL; in the data set with K. pneumoniae 329633, 16 µg/mL; in the data set on K. pneumoniae 11/23 LF#2, 2 µg/mL; in the data set on K. pneumoniae ESBL 10 it was 16 µg/mL; in the data set on K. pneumoniae ESBL 8 #1, 16 µg/mL. For the same compound, the “MIC of cefalexin (LEX)” value in the data set with K. pneumoniae ESBL 8 #2 was 16 µg/mL; in the data set with K. pneumoniae KI (KCl) it was 1 µg/mL. In addition, the “Cephalexin MIC50” value in [1] (No BLI) is >32 µg/mL. Also, in data set [1] (No BLI), the “Cephalexin MIC90” value is >32 µg/mL.

Turning to `CCOB1Oc2c(cccc2C(=O)OCOC(=O)C(CC)CC)C[C@@H]1NC(=O)CC` [Compound 1-ethanolate, ((2-ethylbutanoyl)oxy)methyl (R)-2-ethoxy-3-propionamido-3,4-dihydro-2H-benzo[e][1,2]oxaborinine-8-carboxylate], the solubility (commonly how much of the substance goes into solution per volume) in data set [2] (50 °C, oil or lipid, Labrafil M1944CS (Oleoyl polyoxyl-6 glycerides)) is > 140 mg/mL; in data set [2] (50 °C, oil or lipid, Labrafil M2125C5 (Linoleoyl polyoxyl-6 glycerides)), > 152 mg/mL; in data set [2] (50 °C, oil or lipid, Plurol Oleique CC497 (Polyglyceryl-3 dioleate)), > 375 mg/mL; in data set [2] (50 °C, organic solvent or mixture, Gelucire 44/14 (Lauroyl polyoxyl-32 glycerides)) it was > 284 mg/mL; in data set [2] (50 °C, organic solvent or mixture, Kolliphor EL (Polyoxyl 35 hydrogenated castor oil)), > 376 mg/mL; in [2] (50 °C, organic solvent or mixture, Kolliphor RH (PEG-40 Hydrogenated Castor Oil)), ~172 mg/mL (≈ 410 mM). In addition, the solubility was > 585 mg/mL in [2] (50 °C, organic solvent or mixture, Labrasol (Caprylocaproyl polyoxyl-8 glycerides)); > 238 mg/mL in data set [2] (50 °C, organic solvent or mixture, Polysorbate 80 (Polyoxyethylene (20) sorbitan monooleate)); > 351 mg/mL in data set [2] (Capmul MCM (Caprylic/capric mono- & diglycerides), 50 °C, oil or lipid); > 568 mg/mL in data set [2] (Ethanol, 50 °C, organic solvent or mixture); < 55.8 mg/mL in data set [2] (Glycerol, 50 °C, organic solvent or mixture); > 292 mg/mL in data set [2] (Lauroglycol (Propylene Glycol Monolaurate), neat excipient, 50 °C, oil or lipid). Further, the solubility is > 368 mg/mL in data set [2] (Maisine CC (glyceryl monolinoleate), 50 °C, oil or lipid); > 277 mg/mL in data set [2] (Myrj 52 (PEG-40 Stearate), neat excipient, 50 °C, organic solvent or mixture); > 498 mg/mL in data set [2] (PEG-400, 50 °C, organic solvent or mixture, PEG-400, 50° C.); > 382 mg/mL in data set [2] (PEG-1500, 50 °C, organic solvent or mixture, PEG-1500, 50° C.); > 280 mg/mL in [2] (PEG-3350, 65 °C, organic solvent or mixture, PEG-3350, 65° C.); > 413 mg/mL in [2] (Peceol (Glyceryl monooleate), neat excipient, 50 °C, oil or lipid). The solubility in data set [2] (Phosal 50 PG (50% PC and propylene glycol), 50 °C, oil or lipid) is > 419 mg/mL; in data set [2] (Poloxamer 188, neat excipient, 65 °C, organic solvent or mixture, Poloxamer 188), > 225 mg/mL; in data set [2] (Propylene Glycol, 50 °C, organic solvent or mixture), > 1210 mg/mL; in data set [2] (Span 20 (Sorbitan monolaurate), neat excipient, 50 °C, organic solvent or mixture), > 227 mg/mL; in data set [2] (Span 80, 50 °C, organic solvent or mixture, Span 80, 50° C.), > 276 mg/mL; in data set [2] (TPGS, neat excipient, 50 °C, organic solvent or mixture), > 229 mg/mL. Moreover, the solubility in data set [2] (Triacetin (glycerin triacetate), 50 °C, organic solvent or mixture) is > 84.2 mg/mL.
